# Laboratory results from patent publication US9084770B2, “Modulation of insulin like growth factor I receptor expression in cancer” (Antisense Therapeutics, Ltd., priority 2008, dated 2015).
# Test system: human IGF-IR mRNA
# Test: Antisense inhibition of human IGF-IR mRNA levels by quantitative RT-PCR (Table 1)
# Type: cell-based
# Set-up: %INHIB (human IGF-IR mRNA levels): concentration or dose not given beside the values
# Details: quantitative RT-PCR; averages from 3 experiments
# Description: Treatment of A549 cell cultures with oligonucleotides targeting IGF-IR is as described in WO 2004/072284.
# Quantitation of IGF-IR mRNA levels was accomplished by RT-PCR using the ABI PRISM (trademark) 7600, 7700, or 7900 Sequence Detection System (PE-Applied Biosystems, Foster City, Calif.) according to manufacturer's instructions. This is a closed-tube, non-gel-based, fluorescence detection system which allows high-throughput quantitation of PCR products in real-time. As opposed to standard PCR in which amplification products are quantitated after the PCR is completed, products in real-time quantitative PCR are quantitated as they accumulate. This is accomplished by including in the PCR reaction an oligonucleotide probe that anneals specifically between the forward and reverse PCR primers, and contains two fluorescent dyes. A reporter dye (e.g., FAM or JOE, obtained from either PE-Applied Biosystems, Foster City, Calif., Operon Technologies Inc., Alameda, Calif. or Integrated DNA Technologies Inc., Coralville, Iowa) is attached to the 5′-end of the probe and a quencher dye (e.g., TAMRA, obtained from either PE-Applied Biosystems, Foster City, Calif., Operon Technologies Inc., Alameda, Calif. or Integrated DNA Technologies Inc., Coralville, Iowa) is attached to the 3′-end of the probe. When the probe and dyes are intact, reporter dye emission is quenched by the proximity of the 3′ quencher dye. During amplification, annealing of the probe to the target sequence creates a substrate that can be cleaved by the 5′-exonuclease activity of Taq polymerase. […] With each cycle, additional reporter dye molecules are cleaved from their respective probes, and the fluorescence intensity is monitored at regular intervals by laser optics built into the ABI PRISM (trademark) Sequence Detection System. In each assay, a series of parallel reactions containing serial dilutions of mRNA from untreated control samples generates a standard curve that is used to quantitate the percent inhibition after antisense oligonucleotide treatment of test samples.
# PCR reagents were obtained from Invitrogen Corporation, (Carlsbad, Calif.). RT-PCR reactions were carried out by adding 20 μL PCR cocktail (2.5×PCR buffer minus MgCl2, 6.6 mM MgCl2, 375 μM each of dATP, dCTP, […] and dGTP, 375 nM each of forward primer and reverse primer, 125 nM of probe, 4 Units RNAse inhibitor, 1.25 Units PLATINUM (registered trademark) Taq, 5 Units MuLV reverse transcriptase, and 2.5×ROX dye) to 96-well plates containing 30 μL total RNA solution (20-200 ng). The RT reaction was carried out by incubation for 30 minutes at 48° C. Following a 10 minute incubation at 95° C. to activate the PLATINUM (trademark) Taq, 40 cycles of a two-step PCR protocol were carried out: 95° C. for 15 seconds (denaturation) followed by 60° C. for 1.5 minutes (annealing/extension).
# Gene target quantities obtained by RT-PCR are normalized using either the expression level of GAPDH, a gene whose expression is constant, or by quantifying total RNA using RiboGreen (trademark) (Molecular Probes, Inc. Eugene, Oreg.). GAPDH expression is quantified by RT-PCR, by being run simultaneously with the target, multiplexing, or separately. Total RNA is quantified using RiboGreen (trademark) RNA quantification reagent (Molecular Probes, Inc. Eugene, Oreg.). Methods of RNA quantification by RiboGreen (trademark) are taught in Jones et al., 1998.
# Probes and primers to human IGF-IR were designed to hybridize to the IGF-IR nucleotide sequence, using published sequence information (GenBank accession number NM000875 (SEQ ID NO:76) or M69229 (SEQ ID NO:77) which is the 5′ untranslated of the IGF-IR gene sequence (see FIG. 6).
# In accordance with the present invention, a series of antisense compounds were designed to target different regions of the human IGF-IR mRNA or the 5′ untranslated region, using published sequences set forth in NM000875 (SEQ ID NO:77) and M69229 (SEQ ID NO:76). […]
row,Substance,%INHIB (human IGF-IR mRNA levels) [%]
1,"175325 (antisense AAGGTCACAGCCGAGGCGAG; listed as DNA, chemistry not fully specified) [compound 175325]",55
2,"175326 (antisense CCCAAATCCAGGACACACAC; listed as DNA, chemistry not fully specified) [compound 175326]",74
3,"175327 (antisense ACAAGTCTCAAACTCAGTCT; listed as DNA, chemistry not fully specified) [compound 175327]",61
4,"175328 (antisense GGTAAACAAGAGCCCCAGCC; listed as DNA, chemistry not fully specified) [compound 175328]",64
5,"323695 (antisense CCTTTTATTTGGGATGAAAT; listed as DNA, chemistry not fully specified) [compound 323695]",50
6,"323696 (antisense CCAGACTTCATTCCTTTTAT; listed as DNA, chemistry not fully specified) [compound 323696]",44
7,"323697 (antisense TGATAGTCGTTGCGGATGTC; listed as DNA, chemistry not fully specified) [compound 323697]",73
8,"323698 (antisense GCTGCTGATAGTCGTTGCGG; listed as DNA, chemistry not fully specified) [compound 323698]",72
9,"323699 (antisense CTTCAGCTGCTGATAGTCGT; listed as DNA, chemistry not fully specified) [compound 323699]",74
10,"323700 (antisense CCCTCGATCACCGTGCAGTT; listed as DNA, chemistry not fully specified) [compound 323700]",56
11,"323701 (antisense TTGGAGATGAGCAGGATGTG; listed as DNA, chemistry not fully specified) [compound 323701]",65
12,"323702 (antisense CGGCCTTGGAGATGAGCAGG; listed as DNA, chemistry not fully specified) [compound 323702]",66
13,"323703 (antisense GTCCTCGGCCTTGGAGATGA; listed as DNA, chemistry not fully specified) [compound 323703]",71
14,"323704 (antisense CGGTAGTCCTCGGCCTTGGA; listed as DNA, chemistry not fully specified) [compound 323704]",71
15,"323705 (antisense TTGTAGAAGAGTTTCCAGCC; listed as DNA, chemistry not fully specified) [compound 323705]",52
16,"323706 (antisense TGGTCATCTCGAAGATGACC; listed as DNA, chemistry not fully specified) [compound 323706]",5
17,"323707 (antisense GAGATTGGTCATCTCGAAGA; listed as DNA, chemistry not fully specified) [compound 323707]",20
18,"323708 (antisense TCCTTGAGATTGGTCATCTC; listed as DNA, chemistry not fully specified) [compound 323708]",41

row,Substance,%INHIB (human IGF-IR mRNA levels) [%]
1,"323709 (antisense CAATATCCTTGAGATTGGTC; listed as DNA, chemistry not fully specified) [compound 323709]",29
2,"323710 (antisense AAGCCCAATATCCTTGAGAT; listed as DNA, chemistry not fully specified) [compound 323710]",43
3,"323711 (antisense CCCCCGAGTAATGTTCCTCA; listed as DNA, chemistry not fully specified) [compound 323711]",41
4,"323712 (antisense TCTCAATCCTGATGGCCCCC; listed as DNA, chemistry not fully specified) [compound 323712]",56
5,"323713 (antisense GTTATTGGACACCGCATCCA; listed as DNA, chemistry not fully specified) [compound 323713]",31
6,"323714 (antisense ATGTAGTTATTGGACACCGC; listed as DNA, chemistry not fully specified) [compound 323714]",64
7,"323715 (antisense CCACAATGTAGTTATTGGAC; listed as DNA, chemistry not fully specified) [compound 323715]",65
8,"323716 (antisense CACAGGTCCCCACATTCCTT; listed as DNA, chemistry not fully specified) [compound 323716]",42
9,"323717 (antisense CTGGACACAGGTCCCCACAT; listed as DNA, chemistry not fully specified) [compound 323717]",45
10,"323718 (antisense ATGGTGGTCTTCTCACACAT; listed as DNA, chemistry not fully specified) [compound 323718]",69
11,"323719 (antisense TGTTGATGGTGGTCTTCTCA; listed as DNA, chemistry not fully specified) [compound 323719]",66
12,"323720 (antisense CTCATTGTTGATGGTGGTCT; listed as DNA, chemistry not fully specified) [compound 323720]",81
13,"323721 (antisense GTTGTACTCATTGTTGATGG; listed as DNA, chemistry not fully specified) [compound 323721]",73
14,"323722 (antisense CGGTAGTTGTACTCATTGTT; listed as DNA, chemistry not fully specified) [compound 323722]",71
15,"323723 (antisense AGCAGCGGTAGTTGTACTCA; listed as DNA, chemistry not fully specified) [compound 323723]",70
16,"323724 (antisense GGTCCAGCAGCGGTAGTTGT; listed as DNA, chemistry not fully specified) [compound 323724]",60
17,"323725 (antisense TTTGTGGTCCAGCAGCGGTA; listed as DNA, chemistry not fully specified) [compound 323725]",67
18,"323726 (antisense TGGGCACATTTTCTGGCAGC; listed as DNA, chemistry not fully specified) [compound 323726]",57
